{
  "source": "patent US11219222B2",
  "about": "“Topical mosquito control product” (Penta 5 USA, LLC, priority 2016, dated 2022)",
  "assay_type_in_all_cases": "in vivo",
  "key": {"Aedes aegypti mosquitos": {"system": "Aedes aegypti mosquitos", "experiment": "Arm-in-cage test, protective efficacy", "details": "for No. probing on treated arm: 30 seconds exposure; for No. probing on treated arm / % PE: per replicate cage; for Total % PE: three cages", "experimental": "Additional testing was performed with the lotion formula of example 4 including: bee's wax, soybean oil, edible oil such as sunflower oil, isopropyl alcohol, cinnamon oil, cedar wood oil, citronella oil, turmeric, anise, basil oil, salt, ethyl ester, and water with the following protocols. Aedes aegypti mmosquitoes were obtained from insecticide-susceptible reference strains held at the London School of Hygiene & Tropical Medicine, UK. All mosquitoes are reared and housed under optimal environmental conditions of 25° C. ±2° C. and 80% Relative Humidity with a 12:12 hour photoperiod. Testing was carried out in a testing room maintained at […] and 80% RH with a 12:12 hour photoperiod. For each product, the same person carried out the arm-in-cage testing.\nFor each product test, three batches of 50 female mosquitoes were placed in cages 30×30×30 cm inside the testing room. Before the start of each test a bare arm with gloved hand was inserted into the cage for 30 seconds to assess the biting readiness of the mosquitoes. Only cages with at least ten mosquitoes landing within 30 seconds were used in subsequent testing. The number of mosquitoes probing the untreated arm was counted at the end of the 30 second test. Following the combined fitness/control test, the product was applied onto the right arm at the WHO standard rate of 1 ml per 600 cm2 ([…] per cm2) for the Mosquito Insect Repellent and DEET, and at a rate of 2 mg per cm′ for the Sunscreen Repellent. The arm was then inserted into the cage for 30 seconds and the number of mosquitoes probing on the arm counted and recorded. The procedure was repeated with a total of three cages. This was repeated for each of the three cages and at hourly intervals until 8 hours post-application or until protection drops below 50%. Each product was tested on a separate test day.\nProtective efficacy (PE) was calculated using the following formula: PE=(Mosquitoes probing on control arm—Mosquitoes probing on treated arm)/Mosquitoes probing on control arm×100. The average probing on the control arm during testing was 16, 17 and 21 mosquitoes at the end of the 30 second exposure time, in cages used for testing the Mosquito Insect Repellent Lotion and 8% DEET respectively. The Mosquito Insect Repellent Lotion 100% protection at 0 hours, whereas the 8% DEET provided 100% protection for 1 hour after application (Table 1). The Mosquito Insect Repellent Lotion provided over 50% protection for, 3 hours, whereas 8% DEET provided over 50% protection for 6 hours."}, "[1]": {"system": "yellow fever mosquitoes, Aedes aegypti", "experiment": "In vitro K&D module biting bioassay, example 5 (No-Bite), No-Burn and 7% DEET", "details": "4 hours post-treatment; p>0.05", "experimental": "The deterrent effect of the above-described compositions of example 5 (represented as NO-Bite in FIGS. 7-8) was tested in a controlled environment. In vitro laboratory tests were conducted and measured and compared to DEET and nontreated control groups for yellow fever mosquitos, Aedes aegypti. The repellency of the formulations were compared to a DEET standard, and a non-treated control against yellow fever mosquitoes, Aedes aegypti. The examples were performed in a temperature-controlled laboratory following techniques as disclosed in Klun, J. A., M. A. Kramer, A. Zhang, S. Wang, and M. Debboun. 2008. A quantitative in vitro assay for mosquito deterrent activity without human blood cells. J Am. Mosq. Contr. Assoc. 24:508-512. […] Five colony-reared female Aedes aegypti were aspirated into each chamber (FIG. 1). […] The variance in biting count means by treatment and time intervals was statistically analyzed with SAS Proc ANOVA and statistically tested for significant differences with Tukey's Studentized Range test at p<0.05 and charted with 95% Confidence Intervals (C.I.). Average % repellency was calculated with the following formula and charted by treatment and time interval: (Control Avg. Biting Count—Treatment Avg. Biting Count)÷Control Avg. […]"}, "[2]": {"system": "yellow fever mosquitos, Aedes aegypti", "experiment": "In vitro K & D module biting bioassay, compositions of examples 1-3 vs DEET", "experimental": "The deterrent effect of the above-described compositions of examples 1 -3 was tested in a controlled environment. In vitro laboratory tests were conducted and measured and compared to DEET and nontreated control groups for yellow fever mosquitos, Aedes aegypti. Bioassays were conducted in nine six-chambered Plexiglas K & D modules stocked with female Aedes aegypti mosquitos as shown in FIGS. 1-3. Five female mosquitos were aspirated into each of the six chambers of the nine modules. Repellant treatments were applied at 26.7 microliters with a pipette and spread with a small brush over 12 square centimeter sections of organdy cloth attached to a flat plastic template containing rectangular openings. The treated cloth covered template was fitted between the K & D module and a lower Plexiglas unit. The lower Plexiglas unit contained shallow surface wells filled with a blood substitute (CDTA and ATP) and covered with a moistened collagen membrane. The blood substitute was heated to 38° C. using water pumped through hose lines attached to the lower units and a water bath supplied with a temperature controlled inversion circulator. Mosquitos were exposed to the treated surfaces by opening sliding doors beneath the modules for 90-second biting counts at five post-treatment time intervals from 1 to 6 hours. Fresh, untreated mosquitos are used for each time interval.\nThe testing protocol including the in vitro environment provides a rigorous testing of the repellency of the composition as the mosquitos are confined with a blood meal.\nAn unpaired t-test was conducted on the biting counts between lotion as described herein and the control group where there was no treatment applied between the mosquito and the blood well. […] The statistical factors include t=5.8704 where df=16 and a standard error of difference is equal to 0.530. The two-tailed p value is less than 0.0001. The reduction in biting pressure when using the compositions compared to the control group is significant at the 99.99 level of significance."}},
  "note": "Several values for one entry are separate records, joined by “and”; a condition that tells them apart may be missing. Equal entries are not always repeated.",
  "data": [
    {"smiles": "CCN(CC)C(=O)c1cccc(C)c1", "note": "[8% DEET, DEET]", "values": [
      {"measurement": "No. probing on treated arm", "setting": "Aedes aegypti mosquitos; 0 hours after application", "value": 0},
      {"measurement": "% PE", "setting": "Aedes aegypti mosquitos; 0 hours after application", "value": 100.00, "unit": "%"},
      {"measurement": "Total % PE", "setting": "Aedes aegypti mosquitos; 0 hours after application", "value": 100.00, "unit": "%"},
      {"measurement": "No. probing on treated arm", "setting": "Aedes aegypti mosquitos; 1 hour after application", "value": 0},
      {"measurement": "% PE", "setting": "Aedes aegypti mosquitos; 1 hour after application", "value": 100.00, "unit": "%"},
      {"measurement": "Total % PE", "setting": "Aedes aegypti mosquitos; 1 hour after application", "value": 100.00, "unit": "%"},
      {"measurement": "No. probing on treated arm", "setting": "Aedes aegypti mosquitos; 2 hours after application", "value": "1 and 2 and 0"},
      {"measurement": "% PE", "setting": "Aedes aegypti mosquitos; 2 hours after application", "value": "91.67% and 90.91% and 100.00%"},
      {"measurement": "Total % PE", "setting": "Aedes aegypti mosquitos; 2 hours after application", "value": 95.00, "unit": "%"},
      {"measurement": "No. probing on treated arm", "setting": "Aedes aegypti mosquitos; 3 hours after application", "value": "2 and 0"},
      {"measurement": "% PE", "setting": "Aedes aegypti mosquitos; 3 hours after application", "value": "90.00% and 100.00%"},
      {"measurement": "Total % PE", "setting": "Aedes aegypti mosquitos; 3 hours after application", "value": 95.35, "unit": "%"},
      {"measurement": "No. probing on treated arm", "setting": "Aedes aegypti mosquitos; 4 hours after application", "value": "2 and 1 and 0"},
      {"measurement": "% PE", "setting": "Aedes aegypti mosquitos; 4 hours after application", "value": "91.67% and 94.12% and 100.00%"},
      {"measurement": "Total % PE", "setting": "Aedes aegypti mosquitos; 4 hours after application", "value": 95.16, "unit": "%"},
      {"measurement": "No. probing on treated arm", "setting": "Aedes aegypti mosquitos; 5 hours after application", "value": "2 (2×) and 3"},
      {"measurement": "% PE", "setting": "Aedes aegypti mosquitos; 5 hours after application", "value": "93.10% and 88.89% and 86.96%"},
      {"measurement": "Total % PE", "setting": "Aedes aegypti mosquitos; 5 hours after application", "value": 90.00, "unit": "%"},
      {"measurement": "No. probing on treated arm", "setting": "Aedes aegypti mosquitos; 6 hours after application", "value": "10 and 6 and 7"},
      {"measurement": "% PE", "setting": "Aedes aegypti mosquitos; 6 hours after application", "value": "41.18% and 57.14% and 65.00%"},
      {"measurement": "Total % PE", "setting": "Aedes aegypti mosquitos; 6 hours after application", "value": 54.90, "unit": "%"},
      {"measurement": "No. probing on treated arm", "setting": "Aedes aegypti mosquitos; 7 hours after application", "value": "7 and 6 and 9"},
      {"measurement": "% PE", "setting": "Aedes aegypti mosquitos; 7 hours after application", "value": "36.36% and 50.00% (2×)"},
      {"measurement": "Total % PE", "setting": "Aedes aegypti mosquitos; 7 hours after application", "value": 46.34, "unit": "%"},
      {"measurement": "time after application for which 100% protection was provided", "setting": "Aedes aegypti mosquitos; arm-in-cage, hourly intervals", "value": 1, "unit": "h"},
      {"measurement": "time for which over 50% protection was provided", "setting": "Aedes aegypti mosquitos; arm-in-cage, hourly intervals", "value": 6, "unit": "h"}
    ]},
    {"smiles": "CCN(CC)C(=O)c1cccc(C)c1", "note": "[DEET]", "values": [
      {"measurement": "biting activity compared with control", "setting": "[1]", "value": "no significance difference"},
      {"measurement": "repellency", "setting": "[2]; 6 hour time period", "value": 87.1, "unit": "%"},
      {"measurement": "repellency, average for all five time periods", "setting": "[2]; average of five post-treatment time intervals", "value": 86.52, "unit": "%"},
      {"measurement": "repellency", "setting": "[2]; initial start time of zero, 90-second biting counts, 26.7 microliters on 12 square centimeter cloth", "value": 91.9, "unit": "%"}
    ]}
  ]
}
